Experimental data from ChEMBL document CHEMBL1201862, “PubChem BioAssay data set” (2004).
Activity calls are given as the source filed them.

Tests used:
[1] = luciferase reporter signal suppression in cells – H4 neuroglioma cells, luminescence, dose response (AID 1990); type: functional, cell-based
[2] = Luminescence Cell-Based Dose Response HTS to Identify Inhibitors of 5'UTR Stem-Loop Driven Prion Protein mRNA Translation in H4 Neuroglioblastoma Cells. [Related pubchem assays: 1827 (Project Summary), 1813 (Primary HTS)]; type: functional
[3] = alpha-synuclein stem-loop luciferase translation blockers – H4 neuroglioma cells, luminescence, confirmation (AID 1988); type: functional, cell-based
Cytochrome P450 2C19 = Cytochrome P450 2C19 (Homo sapiens, UniProt P33261); assay: Cytochrome panel assay with activity outcomes. Panel member name: p450-cyp2c19 Compounds with AC50 equal or less than 10 uM are considered active; type: functional
[4] = Trypanosoma cruzi growth suppression in host cells – NIH3T3 host cells, beta-gal luminescence, confirmation (AID 2044); type: functional, cell-based;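 note: intracellular parasites grown in NIH/3T3 mouse fibroblasts as host cells; luminescent beta-galactosidase reporter signal from transgenic T. cruzi replicating inside host cells; inhibitors lower the luminescence signal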
[5] = NIH3T3 cell viability loss – ATP luminescence, mouse fibroblasts, counter-screen, dose response (AID 2010); type: functional, cell-based;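 note: cells exposed to compound for about 90 hours before reading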
[6] = molecular target: T1, Corticotropin-releasing factor receptor 2/Corticotropin-releasing factor-binding protein (Homo sapiens, UniProt P24387+Q13324); assay: activators of CRF receptor 2 with binding protein – uHTS hits, confirmation (AID 602473); type: functional; conditions: read-out: EC50_Mean
T1 sequence (Q13324 whole entry): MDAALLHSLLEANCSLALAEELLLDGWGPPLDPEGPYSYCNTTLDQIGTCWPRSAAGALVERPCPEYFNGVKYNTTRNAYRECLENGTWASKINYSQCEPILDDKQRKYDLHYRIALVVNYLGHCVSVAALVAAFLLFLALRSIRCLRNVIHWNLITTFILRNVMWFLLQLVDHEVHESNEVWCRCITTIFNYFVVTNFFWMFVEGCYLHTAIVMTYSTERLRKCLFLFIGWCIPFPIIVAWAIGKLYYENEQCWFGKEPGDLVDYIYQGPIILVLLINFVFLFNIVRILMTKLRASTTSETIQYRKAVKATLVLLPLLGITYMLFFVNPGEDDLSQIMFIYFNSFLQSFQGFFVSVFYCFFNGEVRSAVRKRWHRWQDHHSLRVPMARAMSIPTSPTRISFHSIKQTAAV
T1 sequence (P24387 whole entry): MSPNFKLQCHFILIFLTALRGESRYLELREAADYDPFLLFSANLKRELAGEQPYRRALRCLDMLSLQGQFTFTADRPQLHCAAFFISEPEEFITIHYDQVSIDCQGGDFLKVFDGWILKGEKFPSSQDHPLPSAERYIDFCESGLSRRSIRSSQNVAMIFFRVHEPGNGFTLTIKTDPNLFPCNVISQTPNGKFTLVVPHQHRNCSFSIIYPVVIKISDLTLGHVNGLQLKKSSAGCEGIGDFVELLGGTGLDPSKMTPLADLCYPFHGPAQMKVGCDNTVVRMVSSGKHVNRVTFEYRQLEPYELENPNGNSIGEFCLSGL

Sequence of Cytochrome P450 2C19 (P33261 whole entry): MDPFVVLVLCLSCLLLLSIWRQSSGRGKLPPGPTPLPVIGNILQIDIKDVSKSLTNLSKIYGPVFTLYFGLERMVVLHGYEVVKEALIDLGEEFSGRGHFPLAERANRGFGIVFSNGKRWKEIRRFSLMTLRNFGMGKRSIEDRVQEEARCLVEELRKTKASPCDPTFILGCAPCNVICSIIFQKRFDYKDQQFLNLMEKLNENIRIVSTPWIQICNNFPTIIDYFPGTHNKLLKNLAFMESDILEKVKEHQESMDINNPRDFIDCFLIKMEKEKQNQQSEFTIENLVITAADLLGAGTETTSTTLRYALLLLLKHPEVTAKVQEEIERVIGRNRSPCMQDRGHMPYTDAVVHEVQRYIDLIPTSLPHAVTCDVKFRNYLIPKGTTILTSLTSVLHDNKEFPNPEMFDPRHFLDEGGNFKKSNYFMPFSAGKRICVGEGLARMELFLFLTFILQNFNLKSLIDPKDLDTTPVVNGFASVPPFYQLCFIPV

SMILES	EC50 [1]	EC50 [2]	EC50 [3]	EC50 [4]	EC50 [5]	also measured
Cc1ccc2c(c1)N1C(=O)c3ccccc3C1C1=C(O)CC(C)(C)CC1=N2 (stereo not given)	> 120 µM (not active)	18.1 µM (active)	> 120 µM (not active)	–	–	–
O=S(=O)(c1ccccc1)N1CCC2(CC1)OCCO2	> 120 µM (not active)	6.97 µM (active)	> 120 µM (not active)	–	–	–
Nc1nc(NCCCN2CCOCC2)nc(Nc2ccccc2)c1[N+](=O)[O-]	40.7 µM (active)	19 µM (active)	> 120 µM (not active)	–	–	–
CC(C)NC(=O)c1ccccc1NC(=O)/C=C/c1cccc([N+](=O)[O-])c1	8.64 µM (active)	11.3 µM (active)	9.29 µM (active)	–	–	–
CC(C)NC(=O)N1CCC2(CC1)CCN(S(C)(=O)=O)CC2	–	–	–	–	–	AC50 (Cytochrome P450 2C19; read-out: AC50): 39.8 µM (inconclusive)
Cc1c(C(=O)NCC2COc3ccccc3O2)oc2ccc(S(=O)(=O)N3CC(C)CC(C)C3)cc12 (stereo not given)	–	–	–	1790 nM (active)	> 60 µM (not active)	–
Cc1cccc(NC(=O)CSc2nnc(C)c(=O)n2N)c1C	> 120 µM (not active)	> 120 µM (not active)	> 120 µM (not active)	–	–	–
Cc1ccc(Sc2nc(-c3ccccc3)ccc2C#N)cc1	–	–	–	–	–	AC50 (Cytochrome P450 2C19; read-out: AC50): 0.631 µM (inconclusive)
NC(=NOC(=O)c1cc([N+](=O)[O-])ccc1Cl)c1cccnc1	> 120 µM (not active)	> 120 µM (not active)	> 120 µM (not active)	–	–	–
CC(=O)NCCC(=O)Nc1cc(S(=O)(=O)N2CCCCC2)ccc1N1CCN(C)CC1	–	–	–	231 nM (active)	> 30 µM (not active)	–
CN1CCN(CC2(O)CCN(S(=O)(=O)c3ccc(Cl)cc3)CC2)CC1	–	–	–	1110 nM (active)	> 60 µM (not active)	–
CC1(C)Cc2c(ccc3ccccc23)C(c2cc3ccccc3oc2=O)=N1	11.1 µM (active)	21.5 µM (active)	> 120 µM (not active)	–	–	–
Cn1c(=N)n(CC(=O)c2ccc(Cl)c(Cl)c2)c2ccccc21	6.07 µM (inconclusive)	13.5 µM (active)	9.54 µM (active)	–	–	–
Cc1nn(Cc2ccccc2Cl)c(C)c1C(=O)NC1CCCc2ccccc21 (stereo not given)	17.1 µM (active)	103 µM (active)	58 µM (active)	–	–	–
Cc1onc(-c2ccccc2Cl)c1C(=O)N(Cc1ccc(N(C)C)cc1)C(C)C	22.5 µM (active)	> 120 µM (not active)	> 120 µM (not active)	–	–	–
CCN(Cc1ccc(O)cc1)CC1CCCN(CCc2cccc(F)c2)C1 (stereo not given)	–	–	–	690 nM (active)	40.3 µM (active)	–
CCC(NCCC1=CCCCC1)=C1C(=O)NC(=O)NC1=O	> 120 µM (not active)	> 120 µM (not active)	> 120 µM (not active)	–	–	–
Cc1ccc(C)c(NC(=O)c2ccccc2O)c1	–	–	–	–	–	EC50 [6]: > 53 µM (inactive)
O=C(CCCCCn1c(=S)[nH]c2ccc(N3CCOCC3)cc2c1=O)NC1CCN(Cc2ccccc2)CC1	–	–	–	595 nM (active)	> 60 µM (not active)	–
CCN(CC)CCN(C(=O)c1ccc(S(=O)(=O)N2CCCCC2)cc1)c1nc2cc3c(cc2s1)OCO3	–	–	–	213 nM (active)	> 60 µM (not active)	–
COc1cc(CNC(=O)c2nc(Cn3nc(C)c(Br)c3C)no2)cc(OC)c1	> 120 µM (not active)	> 120 µM (not active)	42.7 µM (active)	–	–	–
COc1cc(NC(=O)CCN2CCN(C/C=C/c3ccccc3)CC2)cc(OC)c1	–	–	–	918 nM (active)	> 60 µM (not active)	–

SMILES	EC50 [1]	EC50 [2]	EC50 [3]	EC50 [4]	EC50 [5]	also measured
CCC/C=C(\CCC)C(NC(=O)C(C)(C)C)c1ccc(C(=O)OC)cc1 (stereo not given)	–	–	–	–	–	AC50 (Cytochrome P450 2C19; read-out: AC50): 39.8 µM (inconclusive)
O=C(CCc1ccc(S(=O)(=O)NCc2ccccc2)cc1)N1CCN(Cc2ccc3c(c2)OCO3)CC1	–	–	–	897 nM (active)	> 30 µM (not active)	–
O=C(OCc1ccccc1)c1cn(-c2ccccc2)nc1-c1ccncc1	–	–	–	1140 nM (active)	33.5 µM (active)	–
COc1cccc(-c2nc(CS(=O)(=O)CC(=O)NCCc3ccc(C)cc3)c(C)o2)c1	> 120 µM (not active)	> 120 µM (not active)	> 120 µM (not active)	–	–	–
NC(S)=Nc1cccc2[nH]ccc12	–	–	–	–	> 30 µM (not active)	–
CCc1ccc(-c2nc(CSCC(=O)N3CCN(c4ccccn4)CC3)c(C)o2)cc1	8.61 µM (active)	15 µM (active)	12 µM (active)	–	–	–
COC(=O)c1sc(NC(=S)NC(=O)c2cccc(C)c2)nc1C	–	–	–	–	–	EC50 [6]: 9.05 µM (active)
Cc1ccccc1N1C(=O)NC(=O)/C(=C\c2ccc3c(c2)CCCN3Cc2ccccc2)C1=O	–	–	–	–	–	EC50 [6]: 14.2 µM (active)
Cc1ccc(-n2nnc(-c3nccs3)n2)cc1	4.02 µM (active)	0.985 µM (active)	1.41 µM (active)	–	–	–
CC(C)c1ccc(C(O)P(=O)(OC2CCCCC2)OC2CCCCC2)cc1 (stereo not given)	> 120 µM (not active)	19.2 µM (active)	> 120 µM (not active)	–	–	–
Cc1cc(C)c(S(=O)(=O)N2CCN(c3ccc([N+](=O)[O-])c(-n4nc(C)cc4C)c3)CC2)c(C)c1	–	–	–	1830 nM (active)	> 60 µM (not active)	–
CCc1c(C#N)c(SCCC(=O)Nc2ccc(F)cc2)nc2c1C(=O)CC(C)(C)C2	–	–	–	996 nM (active)	> 60 µM (not active)	–
O=C(Nc1ccc(N2CCCCC2)cc1)c1cc([N+](=O)[O-])cc([N+](=O)[O-])c1	–	–	–	411 nM (active)	> 60 µM (not active)	–
COc1ccc(-n2c(S)nnc2CNC(=O)c2cc(OC)c(OC)c(OC)c2)cc1	–	–	–	–	–	AC50 (Cytochrome P450 2C19): inconclusive
COc1ccc(N(CC(=O)NN=C2CCCC2)S(=O)(=O)c2ccccc2)cc1Cl	–	–	–	–	–	EC50 [6]: 4.37 µM (active)
CN1c2ccccc2Oc2c(c(=O)n(C)c(=O)n2C)C1c1cccc([N+](=O)[O-])c1 (stereo not given)	–	–	–	–	–	AC50 (Cytochrome P450 2C19; read-out: AC50): 14.1 µM (inconclusive)
CCOc1ccc(NS(=O)(=O)c2ccc(C(=O)NCC3(N4CCCCC4)CCCCC3)cc2)cc1	–	–	–	–	–	EC50 [6]: 6.45 µM (active)
O=C(O)c1ccccc1N/N=C\c1ccnc2ccccc12	–	11.1 µM (active)	7.78 µM (active)	–	–	–
C#CCn1/c(=N/C(=O)c2ccc(S(=O)(=O)N3CCCc4ccccc43)cc2)sc2cc(S(N)(=O)=O)ccc21	–	–	–	819 nM (active)	> 60 µM (not active)	–
Cc1ccc2sc(N3CCN(C(=O)c4ccc([N+](=O)[O-])o4)CC3)nc2c1C	–	–	–	119 nM (active)	> 30 µM (not active)	–
O=c1c(-c2ccc(O)cc2)coc2cc(O)cc(O)c12 [GENISTEIN]	–	–	–	–	–	AC50 (Cytochrome P450 2C19; read-out: AC50): 10 µM (inconclusive)
